Results reported in patent US6362369B1, “Phthalic acid diamide derivatives fluorine-containing aniline compounds as starting material, agricultural and horticultural insecticides, and a method for application of the insecticides” (Nihon Nohyaku Co., Ltd., priority 1997, dated 2002).

Legend:
[1] = tested on: common cutworm (Spodoptera Litura); assay: Insecticidal effect on common cutworm (Test Example 2); type: in vivo; conditions: 500 ppm, 25° C.; for Insecticidal effect (Test Example 2), judged from mortality / Insecticidal effect on common cutworm (Test Example 2), judged grade: cabbage leaf dip; for Insecticidal effect (Test Example 2), judged from mortality: 8 days after inoculation; for Insecticidal effect on common cutworm (Test Example 2), judged grade: second-instar larvae; for Insecticidal effect on common cutworm (Test Example 2), judged grade / Insecticidal effect, Test Example 2: eight days after inoculation; for Insecticidal effect, Test Example 2: cabbage leaf immersed
Description: Insecticidal effect on common cutworm (Spodoptera Litura)
After air-drying, it was placed in a plastic Petri dish with a diameter of 9 cm and inoculated with second-instar larvae of common cutworm, after which the dish was closed and then allowed to stand in a room thermostated at 25° C. Eight days after the inoculation, the dead and alive were counted. The mortality was calculated according to the following equation and the insecticidal effect was judged according to the criterion shown in Test Example 1. The test was carried out with triplicate groups of 10 insects. [formula]

[2] = tested on: diamondback moth (Plutella xylostella); assay: Insecticidal effect on diamondback moth (Test Example 1); type: in vivo; conditions: for Insecticidal effect (Test Example 1), judged from mortality / Insecticidal effect, Test Example 1: diamondback moth; for Insecticidal effect (Test Example 1), judged from mortality: judged by the criterion of Test Example 1; for Insecticidal effect on diamondback moth (Test Example 1), judged grade: mortality judged according to the criterion shown in Test Example 1
Procedure, shortened: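 Eggs laid by adult moths on Chinese cabbage seedlings, which were immersed in test solution, air-dried and kept at 25 °C. Hatched insects counted 6 days after immersion and mortality calculated, with effect graded by criterion; triplicate groups of 10 insects.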

[3] = second-instar larvae of common cutworm
[4] = judged by the mortality criterion of Test Example 1
[5] = common cutworm second-instar larvae
[6] = mortality judged by criterion of Test Example 1

CC(C)NC(=O)c1c(I)cccc1C(=O)Nc1cc2c(cc1Cl)OC(F)(F)C(F)O2 (racemic) [compound 1601] was tested, and the “Insecticidal effect (Test Example 2), judged from mortality” value [1, 3] was “A (100)” and the “Insecticidal effect (Test Example 1), judged from mortality” value [2] was “A (100)”.

With Cc1cc(OC(F)F)ccc1NC(=O)c1cccc(Cl)c1C(=O)N[C@@H](C)c1ccccc1 [compound 1459] the “Insecticidal effect (Test Example 2), judged from mortality” value [1, 3] was “A (100)” and the “Insecticidal effect (Test Example 1), judged from mortality” value [2] was “A (100)”.

With Cc1cc(C(F)(C(F)(F)F)C(F)(F)F)c(Cl)cc1NC(=O)c1cccc(I)c1C(=O)NC(C)C [compound 1665] the “Insecticidal effect (Test Example 2), judged from mortality” value [1, 3] was “A (100)” and the “Insecticidal effect (Test Example 1), judged from mortality” value [2] was “A (100)”.

With CC(C)NC(=O)c1c(C(=O)Nc2ccc(OC(F)F)c(C(F)(F)F)c2)cccc1[N+](=O)[O-] [compound 693] the “Insecticidal effect on common cutworm (Test Example 2), judged grade” value (from here on “Insecticidal effect on common cutworm”) [1] was “A (100)” and the “Insecticidal effect on diamondback moth (Test Example 1), judged grade” value (“Insecticidal effect on diamondback moth” below) [2] was “A (100)”.

CC(C)NC(=O)c1cccc(Cl)c1C(=O)Nc1ccc(OC(F)F)c(C(F)(F)F)c1 [compound 254] was tested, and the “Insecticidal effect, Test Example 2” value [1, 3] was “A (100)” and the “Insecticidal effect, Test Example 1” value [2, 4] was “A (100)”.

For Cc1ccc(Cl)cc1NC(=O)c1cccc([N+](=O)[O-])c1C(=O)NC1CCCC1 [compound 858], the “Insecticidal effect on common cutworm” value [1] was “A (100)” and the “Insecticidal effect on diamondback moth” value [2] was “C (89-80)”.

CC(C)NC(=O)c1c(C(=O)Nc2ccc(Br)cc2)cccc1[N+](=O)[O-] [compound 591] was tested, and the “Insecticidal effect on common cutworm” value [1] was “D (79-50)” and the “Insecticidal effect on diamondback moth” value [2] was “A (100)”.

For CCN(CC)C(=O)c1c(I)cccc1C(=O)N(CC)c1ccc(C(F)(F)C(F)(F)F)cc1C [compound 1179], the “Insecticidal effect, Test Example 2” value [1, 5] was “A (100)” and the “Insecticidal effect, Test Example 1” value [2, 6] was “A (100)”.

For CC(C)NC(=O)c1c(I)cccc1C(=O)Nc1ccc(I)cc1C(C)C [compound 965], the “Insecticidal effect, Test Example 2” value [1, 5] was “C (89-80)” and the “Insecticidal effect, Test Example 1” value [2, 6] was “A (100)”.

With CC(C)NC(=O)c1c(C(=O)Nc2c(F)cccc2F)cccc1[N+](=O)[O-] [compound 641] the “Insecticidal effect on common cutworm” value [1] was “D (79-50)” and the “Insecticidal effect on diamondback moth” value [2] was “D (79-50)”.

CC(C)(C)NC(=O)c1c(I)cccc1C(=O)Nc1ccc(C(F)(F)C(F)(F)F)c(Cl)c1 [compound 1609] was tested, and the “Insecticidal effect (Test Example 2), judged from mortality” value [1, 3] was “A (100)” and the “Insecticidal effect (Test Example 1), judged from mortality” value [2] was “A (100)”.

Cc1cc(I)ccc1NC(=O)c1c(I)cccc1C(=O)NC(C)C [compound 431] was tested, and the “Insecticidal effect, Test Example 2” value [1, 3] was “A (100)” and the “Insecticidal effect, Test Example 1” value [2, 4] was “A (100)”.

CCN(CC)C(=O)c1c(C(=O)Nc2ccc(OC(F)(F)F)cc2C)cccc1C(F)(F)F [compound 1185] was tested, and the “Insecticidal effect, Test Example 2” value [1, 5] was “C (89-80)” and the “Insecticidal effect, Test Example 1” value [2, 6] was “A (100)”.

Cc1cc(C(F)(F)C(F)(F)F)ccc1NC(=O)c1ccc(F)c(Cl)c1C(=O)NC(C)(C)C [compound 1257] was tested, and the “Insecticidal effect, Test Example 2” value [1, 5] was “A (100)” and the “Insecticidal effect, Test Example 1” value [2, 6] was “A (100)”.

For Cc1cc(OC(F)F)c(Cl)cc1NC(=O)c1c(F)cccc1C(=O)NC(C)C [compound 571], the “Insecticidal effect on common cutworm” value [1] was “C (89-80)” and the “Insecticidal effect on diamondback moth” value [2] was “A (100)”.

CC(C)NC(=O)c1ccccc1C(=O)Nc1ccc(F)c(F)c1 [compound 43] was tested, and the “Insecticidal effect, Test Example 2” value [1, 3] was “D (79-50)” and the “Insecticidal effect, Test Example 1” value [2, 4] was “B (99-90)”.

With Cc1cc(C(F)(F)C(F)(F)F)c(C)cc1NC(=O)c1cccc(I)c1C(=O)NC(C)C [compound 1610] the “Insecticidal effect (Test Example 2), judged from mortality” value [1, 3] was “A (100)” and the “Insecticidal effect (Test Example 1), judged from mortality” value [2] was “A (100)”.

With CSc1ccc(NC(=O)c2cccc([N+](=O)[O-])c2C(=O)NC(C)C)c(C)c1 [compound 719] the “Insecticidal effect on common cutworm” value [1] was “D (79-50)” and the “Insecticidal effect on diamondback moth” value [2] was “A (100)”.

For CCN(CC)C(=O)c1c(C(=O)Nc2ccc(OC(F)(F)F)cc2C)ccc(F)c1Cl [compound 1261], the “Insecticidal effect, Test Example 2” value [1, 5] was “A (100)” and the “Insecticidal effect, Test Example 1” value [2, 6] was “A (100)”.
